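A five-concentration, 48-hour dose response in 96-well plates underlies each endpoint, interpolated linearly between surrounding concentrations. GI50 marks 50% less growth.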 Activity calls are given as the source filed them. No stated cut-off is given here; in the data, active = GI50 up to about 1.1 µM and inactive = higher.
Key:
Experiment in all cases: inhibition of tumour cell growth, NCI panel, 48 h
786-0 = tested on: 786-0
ACHN = tested on: ACHN
DU-145 = tested on: DU-145
HCT-116 = tested on: HCT-116
HCT-15 = tested on: HCT-15
HOP-92 = tested on: HOP-92
LOX IMVI = tested on: LOX IMVI
MCF7 = tested on: MCF7
MDA-MB-231 = tested on: MDA-MB-231
MDA-N = tested on: MDA-N
NCI-H522 = tested on: NCI-H522
OVCAR-4 = tested on: OVCAR-4
SF-539 = tested on: SF-539
SK-MEL-28 = tested on: SK-MEL-28
SK-MEL-5 = tested on: SK-MEL-5
SNB-75 = tested on: SNB-75
SR = tested on: SR
TK-10 = tested on: TK-10
UACC-257 = tested on: UACC-257
UO-31 = tested on: UO-31

Structure (SMILES)	GI50 (786-0)	GI50 (ACHN)	GI50 (DU-145)	GI50 (HCT-116)	GI50 (HCT-15) [µM]	GI50 (HOP-92)	GI50 (LOX IMVI)	GI50 (MCF7)	GI50 (MDA-MB-231)	GI50 (MDA-N)	GI50 (NCI-H522)	GI50 (OVCAR-4)	GI50 (SF-539)	GI50 (SK-MEL-28)	GI50 (SK-MEL-5)	GI50 (SNB-75)	GI50 (SR)	GI50 (TK-10)	GI50 (UACC-257)	GI50 (UO-31)
Cn1c(=O)c2nc(CCCCc3nc4c(=O)n(C)c(=S)n(C)c4[nH]3)[nH]c2n(C)c1=S	> 100 µM (inactive)	> 100 µM (inactive)	> 100 µM (inactive)	> 100 µM (inactive)	> 100	45.7 µM (inactive)	> 100 µM (inactive)	> 100 µM (inactive)	> 100 µM (inactive)	> 100 µM (inactive)	> 100 µM (inactive)	> 100 µM (inactive)	40.8 µM (inactive)	> 100 µM (inactive)	> 100 µM (inactive)	23.4 µM (inactive)	> 100 µM (inactive)	> 100 µM (inactive)	> 100 µM (inactive)	> 100 µM (inactive)
CC(C)C[C@H](NC(=O)CCc1cccc2ccccc12)B(O)O	0.923 µM (active)	0.498 µM (active)	4.62 µM (inactive)	0.473 µM (active)	1.26	2.17 µM (inactive)	0.461 µM (active)	0.56 µM (active)	2.25 µM (inactive)	0.452 µM (active)	1.24 µM (inactive)	4.56 µM (inactive)	0.333 µM (active)	0.716 µM (active)	0.457 µM (active)	7.98 µM (inactive)	0.37 µM (active)	0.578 µM (active)	1.2 µM (inactive)	1.94 µM (inactive)
CC(C)(C)c1ccc(-n2c3nc(=O)n(-c4ccccc4C(F)(F)F)c(=O)c-3cc3ccccc32)cc1	25.7 µM (inactive)	15.8 µM (inactive)	28.1 µM (inactive)	10.5 µM (inactive)	12.3	18.1 µM (inactive)	11.9 µM (inactive)	15.6 µM (inactive)	23.8 µM (inactive)	22.2 µM (inactive)	16.9 µM (inactive)	27.5 µM (inactive)	23.8 µM (inactive)	8.26 µM (inactive)	15 µM (inactive)	15.6 µM (inactive)	19.3 µM (inactive)	51.9 µM (inactive)	19.6 µM (inactive)	20.7 µM (inactive)
Cc1ccc2nc3n(c2c1)C(c1c(F)cccc1F)SC3 (stereo not given)	> 100 µM (inactive)	> 100 µM (inactive)	> 100 µM (inactive)	> 100 µM (inactive)	> 100	49.3 µM (inactive)	> 100 µM (inactive)	47.1 µM (inactive)	> 100 µM (inactive)	> 100 µM (inactive)	55.5 µM (inactive)	> 100 µM (inactive)	> 100 µM (inactive)	> 100 µM (inactive)	> 100 µM (inactive)	> 100 µM (inactive)	> 100 µM (inactive)	> 100 µM (inactive)	> 100 µM (inactive)	> 100 µM (inactive)
CC(=O)OCC1OC(n2c3c(c(-c4ccc(Cl)cc4)c(C#N)c2=S)C(=O)CC(C)(C)C3)C(OC(C)=O)C(OC(C)=O)C1OC(C)=O (stereo not given)	12.8 µM (inactive)	28.5 µM (inactive)	50.9 µM (inactive)	19.1 µM (inactive)	14.2	18.5 µM (inactive)	7.55 µM (inactive)	7.98 µM (inactive)	15.2 µM (inactive)	11.5 µM (inactive)	4.94 µM (inactive)	17.8 µM (inactive)	21.1 µM (inactive)	23.6 µM (inactive)	11.7 µM (inactive)	11.4 µM (inactive)	4.12 µM (inactive)	> 100 µM (inactive)	15.2 µM (inactive)	39.2 µM (inactive)
NC1=Nc2ccccc2Sc2cccc(F)c21	> 100 µM (inactive)	> 100 µM (inactive)	> 100 µM (inactive)	29.1 µM (inactive)	> 100	> 100 µM (inactive)	99.5 µM (inactive)	65 µM (inactive)	> 100 µM (inactive)	46.1 µM (inactive)	64.4 µM (inactive)	58.3 µM (inactive)	> 100 µM (inactive)	> 100 µM (inactive)	38 µM (inactive)	46.5 µM (inactive)	35.1 µM (inactive)	> 100 µM (inactive)	46.3 µM (inactive)	84.5 µM (inactive)
CC1=CC(C)(C)[C@H]2O[C@@]3(O)C[C@]4(C)[C@H]5C[C@@](C(C)C)(O[C@H]4c4ccoc4)O[C@H]4[C@]5(C3)O[C@@]1(O)[C@]24O	89.1 µM (inactive)	> 100 µM (inactive)	> 100 µM (inactive)	61.8 µM (inactive)	> 100	83.8 µM (inactive)	> 100 µM (inactive)	> 100 µM (inactive)	81.3 µM (inactive)	> 100 µM (inactive)	5.26 µM (inactive)	54.2 µM (inactive)	> 100 µM (inactive)	81.8 µM (inactive)	44.2 µM (inactive)	12.3 µM (inactive)	> 100 µM (inactive)	> 100 µM (inactive)	> 100 µM (inactive)	> 100 µM (inactive)
CC(C)(C)C1CC[C@H](O)[C@H]([C@H](O)CC2CC(=O)N(c3ccccc3)C(=O)C2)C1 (stereo not given in full)	> 100 µM (inactive)	> 100 µM (inactive)	> 100 µM (inactive)	> 100 µM (inactive)	> 100	36.1 µM (inactive)	> 100 µM (inactive)	> 100 µM (inactive)	> 100 µM (inactive)	> 100 µM (inactive)	> 100 µM (inactive)	> 100 µM (inactive)	> 100 µM (inactive)	> 100 µM (inactive)	> 100 µM (inactive)	> 100 µM (inactive)	> 100 µM (inactive)	> 100 µM (inactive)	> 100 µM (inactive)	> 100 µM (inactive)
CC(=O)Nc1ccc(C2SCc3nc4ccccc4n32)cc1 (stereo not given)	56.8 µM (inactive)	96.4 µM (inactive)	> 100 µM (inactive)	> 100 µM (inactive)	47.3	57.7 µM (inactive)	63.8 µM (inactive)	57 µM (inactive)	26.2 µM (inactive)	> 100 µM (inactive)	66.5 µM (inactive)	38.4 µM (inactive)	> 100 µM (inactive)	> 100 µM (inactive)	60.1 µM (inactive)	34.4 µM (inactive)	> 77.1 µM (inactive)	22.6 µM (inactive)	57.4 µM (inactive)	44.3 µM (inactive)
COc1ccc(S(=O)(=O)Nc2ccc(-c3csc(N4C(=O)/C(=C/C=C\c5ccccc5)N=C4c4ccccc4)n3)cc2)cc1Cl	31.3 µM (inactive)	31.1 µM (inactive)	31.8 µM (inactive)	25.7 µM (inactive)	21.8	16.6 µM (inactive)	19.8 µM (inactive)	32.4 µM (inactive)	22.9 µM (inactive)	31.3 µM (inactive)	18.5 µM (inactive)	25.9 µM (inactive)	36.6 µM (inactive)	59.7 µM (inactive)	27.4 µM (inactive)	33.4 µM (inactive)	31.8 µM (inactive)	38.5 µM (inactive)	33 µM (inactive)	28.3 µM (inactive)
CC1OC(OC2C(O)COC(OC3C(C)OC(OC4C(OC(=O)[C@]56CCC(C)(C)C[C@@H]5C5=CCC7[C@@]8(C)C[C@H](O)[C@H](OC9OC(CO)C(O)C(OC%10OC(CO)C(O)C(O)C%10O)C9O)[C@@](C)(CO)[C@@H]8CC[C@@]7(C)[C@]5(C)CC6)OCC(O)C4O)C(O)C3OC3OCC(O)(CO)C3O)C2O)C(O)C(O)C1O (stereo not given in full)	8.09 µM (inactive)	9.68 µM (inactive)	8.28 µM (inactive)	11.2 µM (inactive)	7.71	10.2 µM (inactive)	8.51 µM (inactive)	12.4 µM (inactive)	8.05 µM (inactive)	10.2 µM (inactive)	7.96 µM (inactive)	7.94 µM (inactive)	8.83 µM (inactive)	6.24 µM (inactive)	8.05 µM (inactive)	11.2 µM (inactive)	6.28 µM (inactive)	9.79 µM (inactive)	9.1 µM (inactive)	3.56 µM (inactive)
CC(=O)C(C(=O)C(C)(C)C)C(=O)C(C)(C)C	> 100 µM (inactive)	> 100 µM (inactive)	> 100 µM (inactive)	> 100 µM (inactive)	> 100	> 100 µM (inactive)	> 100 µM (inactive)	> 100 µM (inactive)	> 100 µM (inactive)	> 100 µM (inactive)	> 100 µM (inactive)	> 100 µM (inactive)	> 100 µM (inactive)	> 100 µM (inactive)	> 100 µM (inactive)	59.4 µM (inactive)	> 100 µM (inactive)	> 100 µM (inactive)	> 100 µM (inactive)	> 100 µM (inactive)
O=C1CCc2ccc(O)c(c2)Oc2ccc(cc2)C(Sc2ccccc2)CCO1 (stereo not given)	16 µM (inactive)	15.1 µM (inactive)	17.8 µM (inactive)	16.2 µM (inactive)	13.7	10 µM (inactive)	12.5 µM (inactive)	12.1 µM (inactive)	3.85 µM (inactive)	16.2 µM (inactive)	13.2 µM (inactive)	12.2 µM (inactive)	15.8 µM (inactive)	15.4 µM (inactive)	12.1 µM (inactive)	6.49 µM (inactive)	13.1 µM (inactive)	16 µM (inactive)	16 µM (inactive)	14.4 µM (inactive)
